Where a SMILES comes first, the peptide text is derived from it. [ ]: non-standard residue; d: D form. Dopa = N[C@@H](Cc1ccc(O)c(O)c1)C(=O)O
Experiments:
Minipig/Göttingen = assay: Local safety, 24-hour SC infusion; format: in vivo
Method: (§1) In vivo non-clinical safety studies were conducted in both the rat and minipig. Additionally, an assessment of the local infusion site reaction of LD-Tyr was performed as part of a PK study in domestic pigs.

Pig/domestic = assay: Local infusion site reaction as part of a PK study (ND 2-20-102); format: in vivo; conditions: study ND 2-20-102, 200 mg/mL at 9 mL (1800 mg/day)
Method: as §1

[1] = Effect of various additives on stability of a 20% LD-Tyrosine-L-Arginine based formulation; format: physicochemical
[2] = PK of formulations with varying concentrations of LD-Tyr and CD (Example 16); format: in vivo, domestic pig; conditions: female, pig, plasma, sc, analyte LD-Tyr, 18-hour continuous SC infusion
Method: A series of PK and local site reaction studies was completed in domestic pigs using several concentrations LD-Tyr formulations comprising varying amounts of CD, as detailed in Table 37, and dosing regimens, as detailed in Table 38. The PK profile of LD-Tyr, as well as the LD resulting therefrom, was determined following 18-hour continuous SC infusion to female domestic pigs. Each formulation was administered at one infusion site per animal using a Crono-ND infusion pump (Canè SpA Medical Technology, Rivoli, Italy) connected to an infusion set (Accu-chek®, FlexLink, Roche).
Blood samples for the determination of LD-Tyr and LD plasma levels were collected from the pigs at the following timepoints: […]

[3] = 2640 mg/day, LD-Tyr/CD 44/1 % w/v, daily dose 2640/60 mg, n = 4
[4] = 2700 mg/day, LD-Tyr/CD 30/0.5 % w/v, daily dose 2700/45 mg, n = 5
[5] = 2700 mg/day, LD-Tyr/CD 30/[…] w/v, daily dose 2700/135 mg, n = 5

N[C@@H](Cc1ccc(O)c(O)c1)C(=O)N[C@@H](Cc1ccc(O)cc1)C(=O)O [LD-Tyr, levodopa-tyrosine (LD-Tyr) conjugate of the formula (II)] (H-[Dopa]-Tyr-OH)
subchronic/chronic inflammation in the subcutis (Minipig/Göttingen; study 0NMR6, 120 mg/mL at 4.5 mL (540 mg/day)): minimal to mild
tolerability (local effect, cutaneous ulcers) (Minipig/Göttingen; study 0NMR6, 24-hour SC infusion, 120 mg/mL at 4.5 mL (540 mg/day)): well tolerated with no
chronic inflammation in the subcutis (Minipig/Göttingen; study 0NMR10, 130 mg/mL at 6 mL (780 mg/day)): minimal to moderate
tolerability (local effect, cutaneous ulcers) (Minipig/Göttingen; study 0NMR10, 24-hour SC infusion, 130 mg/mL at 6 mL (780 mg/day)): well tolerated with no
tolerability (local effect, cutaneous ulcers) (Minipig/Göttingen; study E0515, 24-hour SC infusion, 440, 370, 300, and 250 mg/mL (2640, 2775, 2700, and 2250 mg/day)): well tolerated with no
subacute inflammation in the subcutis (Pig/domestic): minimal to mild
solubility of the LD-Tyr (rank order of cosolvents) [1]: DMA>Ethanol>PEG 300
AUC(0-t) [2, 3]: 8130 ng·h/mL
Cmax [2, 3]: 738 ng/mL
Tmax [2, 3]: 11.6 h
AUC(0-t) [2, 4]: 5450 ng·h/mL
Cmax [2, 4]: 453 ng/mL
Tmax [2, 4]: 8.8 h
AUC(0-t) [2, 5]: 13500 ng·h/mL
Cmax [2, 5]: 986 ng/mL
Tmax [2, 5]: 12.4 h

Reference: patent US20240207410A1, “STABILIZED LIQUID COMPOSITIONS COMPRISING A LEVODOPA-TYROSINE CONJUGATE AND USES THEREOF” (NeuroDerm, Ltd., priority 2021, published 2024)
